Experimental data from patent EP0514268A1, “Substituted amino acid azetidinyl pyridone derivatives, their preparation and use as medicines” (LABORATORIOS DEL DR. ESTEVE, S.A., priority 1991, dated 1992).
Converted amounts (≈) assume the structure as drawn.

Columns and labels:
[1] = system: Kleb. pneumoniae ATCC 10031; test: Antimicrobial activity, agar dilution; type: cell-based, Klebsiella pneumoniae; details: Klebsiella pneumoniae, ATCC10031, 20 h, Agar Dextrose dilutions, 37°C, 20 heures, read-out: Activité pharmacologique antimicrobienne (concentrations)
Description: (§1) L'activité pharmacologique antimicrobienne de ces composés a été étudiée selon les références exposées ci-dessous.
(§2) Activité pharmacologique antimicrobienne : G.L. Daquet et Y.A. Chabbect, techniques en bactériologie, Vol. 3, Flammarion Médecine-Sciences, Paris 1972, et W.B. Hugo et A.D. Rusell, Pharmaceutical Microbiology, Blackwell Scientific Publications, London, 1977.
(§3) Milieu de culture et solvant : Agar d'antibiotiques n° 1 (Oxoid CM 327) Bouillon de triptone-soja (Oxoid CM 129) Solution Physiologique Ringer 1/4 (Oxoid BR 52) Agar Dextrose (BBL 11165)
(§4) Microorganismes : "Bacillus subtilis" ATCC 6633 "Citrobacter freundii" ATCC 112606 "Enterobacter aerogenes" ATCC 15038 "Enterobacter cloacae" ATCC 23355 "Bacillus cereus" ATCC 1178 "Escherichia coli" ATCC 10799 "Escherichia coli" ATCC 23559 "Klebsiella pneumoniae" ATCC 10031 "Proteus vulgaris" ATCC 8427 "Morg. morganii" ATCC 8019 "Pseudomonas aeruginosa" ATCC 9721 "Pseudomonas aeruginosa" ATCC 10145 "Salmonella typhimurium" ATCC 14028 "Salmonella typhimurium" ATCC 6539 "Serratia marcescens" ATCC 13880 "Shigella flexnerii" ATCC 12022 "Staphylococcusepidermis" ATCC 155-1 "Staphylococcus aureus" ATCC 25178 "Streptococcus faecalis" ATCC 10541.
(§5) Chacun des microorganismes est ensemencé par strie dans des tubes d'Agar d'antibiotiques n° 1, et mis en incubation pendant 20 heures à 37°C. Ensuite, on prend une anse de culture, on ensemence dans un bouillon de Triptone-soja et on incube pendant 20 heures à 37°C. On dilue à 1/4 la culture obtenue avec une solution physiologique Ringer, de façon à obtenir une suspension normalisée de […] pour chaque organisme.
(§6) A partir d'une solution de 100 µg/ml, chaque produit est dilué dans l'Agar Dextrose (préalablement fondu et maintenu à 50°C) par dilutions successives de façon à obtenir les concentrations suivantes : 64-32-16-8-4-2-1-0,5-0,25-0,125 µg de dérivé/ml du milieu.
(§7) Postérieurement, chaque concentration de chaque produit est répartie dans des boîtes de Petri de 10 cm de diamètre, à raison de 10 ml de milieu par boîte et autant de boîtes que de microorganismes à tester.
(§8) Une fois le milieu refroidi, les boîtes sont ensemencées avec les inoculations à raison de 0,4 ml d'inoculation par boîte. On les étend avec une anse de Driglasky et on recueille le surnageant. Les boîtes ensemencées sont incubées à 37°C pendant 20 heures.
(§9) Les résultats obtenus sont décrits dans les tableaux suivants. Les concentrations sont données en µg/ml.

[2] = Solubility in water and at pH 7.4; type: physicochemical
Description: Un grand nombre des composés de l'invention manifestent une augmentation de la solubilité dans l'eau ainsi que de la solubilité à pH 7,4 lorsqu'on compare avec les composés de référence. L'augmentation de solubilité au pH physiologique peut favoriser l'absorption du produit et la solubilité élevée dans l'eau permet l'administration du composé par voie parentérale.

[3] = system: Strep. faecalis ATCC 10541; test: Antimicrobial activity, agar dilution; type: cell-based, Streptococcus faecalis; details: Enterococcus faecalis, ATCC10541, 20 h, Agar Dextrose dilutions, 37°C, 20 heures, read-out: Activité pharmacologique antimicrobienne (concentrations)
Description: as §1, §2, §3, §4, §5, §6, §7, §8, §9

Morg. morganii ATCC 8019 = test: Antimicrobial activity, agar dilution; type: cell-based; details: Morganella morganii, ATCC8019, 20 h, Agar Dextrose dilutions, 37°C, 20 heures, read-out: Activité pharmacologique antimicrobienne (concentrations)
Description: as §1, §2, §3, §4, §5, §6, §7, §8, §9

[4] = system: Bacillus subtilis ATCC 6633; test: Antimicrobial activity, agar dilution; type: cell-based; details: ATCC6633, 20 h, Agar Dextrose dilutions, 37°C, 20 heures, read-out: Activité pharmacologique antimicrobienne (concentrations)
Description: as §1, §2, §3, §4, §5, §6, §7, §8, §9

[5] = system: Escherichia coli ATCC 10799; test: Antimicrobial activity, agar dilution; type: cell-based; details: Escherichia coli, ATCC10799, 20 h, Agar Dextrose dilutions, 37°C, 20 heures, read-out: Activité pharmacologique antimicrobienne (concentrations)
Description: as §1, §2, §3, §4, §5, §6, §7, §8, §9

[6] = system: Staph. epidermidis ATCC 155-1; test: Antimicrobial activity, agar dilution; type: cell-based; details: Staphylococcus epidermidis, ATCC155, 20 h, Agar Dextrose dilutions, 37°C, 20 heures, read-out: Activité pharmacologique antimicrobienne (concentrations)
Description: as §1, §2, §3, §4, §5, §6, §7, §8, §9

[7] = system: Ps. aeruginosa ATCC 10145; test: Antimicrobial activity, agar dilution; type: cell-based; details: Pseudomonas aeruginosa, ATCC10145, 20 h, Agar Dextrose dilutions, 37°C, 20 heures, read-out: Activité pharmacologique antimicrobienne (concentrations)
Description: as §1, §2, §3, §4, §5, §6, §7, §8, §9

[8] = system: Proteus vulgaris ATCC 8427; test: Antimicrobial activity, agar dilution; type: cell-based; details: Proteus vulgaris, ATCC8427, 20 h, Agar Dextrose dilutions, 37°C, 20 heures, read-out: Activité pharmacologique antimicrobienne (concentrations)
Description: as §1, §2, §3, §4, §5, §6, §7, §8, §9

[9] = system: Shigella flexnerii ATCC 12022; test: Antimicrobial activity, agar dilution; type: cell-based; details: ATCC12022, 20 h, Agar Dextrose dilutions, 37°C, 20 heures, read-out: Activité pharmacologique antimicrobienne (concentrations)
Description: as §1, §2, §3, §4, §5, §6, §7, §8, §9

[10] = system: Escherichia coli ATCC 23559; test: Antimicrobial activity, agar dilution; type: cell-based; details: Escherichia coli, ATCC23559, 20 h, Agar Dextrose dilutions, 37°C, 20 heures, read-out: Activité pharmacologique antimicrobienne (concentrations)
Description: as §1, §2, §3, §4, §5, §6, §7, §8, §9

Ps. aeruginosa ATCC 9721 = test: Antimicrobial activity, agar dilution; type: cell-based; details: Pseudomonas aeruginosa, ATCC9721, 20 h, Agar Dextrose dilutions, 37°C, 20 heures, read-out: Activité pharmacologique antimicrobienne (concentrations)
Description: as §1, §2, §3, §4, §5, §6, §7, §8, §9

[11] = system: Bacillus cereus ATCC 11778; test: Antimicrobial activity, agar dilution; type: cell-based; details: Bacillus cereus, ATCC11778, 20 h, Agar Dextrose dilutions, 37°C, 20 heures, read-out: Activité pharmacologique antimicrobienne (concentrations)
Description: as §1, §2, §3, §4, §5, §6, §7, §8, §9

Sal. typhi ATCC 6539 = test: Antimicrobial activity, agar dilution; type: cell-based; details: Salmonella enterica, 20 h, read-out: Activité pharmacologique antimicrobienne (concentrations)
Description: as §1, §2, §3, §4, §5, §6, §7, §8, §9

[12] = system: Citr. freundii ATCC 11606; test: Antimicrobial activity, agar dilution; type: cell-based, Citrobacter freundii; details: Citrobacter freundii, ATCC11606, 20 h, Agar Dextrose dilutions, 37°C, 20 heures, read-out: Activité pharmacologique antimicrobienne (concentrations)
Description: as §1, §2, §3, §4, §5, §6, §7, §8, §9

[13] = system: Serr. marcescens ATCC 13880; test: Antimicrobial activity, agar dilution; type: cell-based, Serratia marcescens; details: Serratia marcescens, ATCC13880, 20 h, Agar Dextrose dilutions, 37°C, 20 heures, read-out: Activité pharmacologique antimicrobienne (concentrations)
Description: as §1, §2, §3, §4, §5, §6, §7, §8, §9

Ent. cloacae ATCC 23355 = test: Antimicrobial activity, agar dilution; type: cell-based, Enterobacter cloacae; details: Enterobacter cloacae, ATCC23355, 20 h, Agar Dextrose dilutions, 37°C, 20 heures, read-out: Activité pharmacologique antimicrobienne (concentrations)
Description: as §1, §2, §3, §4, §5, §6, §7, §8, §9

Staph. aureus ATCC 25178 = test: Antimicrobial activity, agar dilution; type: cell-based, Staphylococcus aureus; details: Staphylococcus aureus, ATCC25178, 20 h, Agar Dextrose dilutions, 37°C, 20 heures, read-out: Activité pharmacologique antimicrobienne (concentrations)
Description: as §1, §2, §3, §4, §5, §6, §7, §8, §9

[14] = system: Ent. aerogenes ATCC 15038; test: Antimicrobial activity, agar dilution; type: cell-based, Enterobacter aerogenes; details: Klebsiella aerogenes, ATCC15038, 20 h, Agar Dextrose dilutions, 37°C, 20 heures, read-out: Activité pharmacologique antimicrobienne (concentrations)
Description: as §1, §2, §3, §4, §5, §6, §7, §8, §9

[15] = system: Sal. typhimurium ATCC 14028; test: Antimicrobial activity, agar dilution; type: cell-based, Salmonella typhimurium; details: Salmonella enterica, 20 h, Agar Dextrose dilutions, 37°C, 20 heures, read-out: Activité pharmacologique antimicrobienne (concentrations)
Description: as §1, §2, §3, §4, §5, §6, §7, §8, §9

| Structure (SMILES) | MIC [1] | solubility ([2]; pH 7) | solubility ([2]; water) | MIC [3] | MIC (Morg. morganii ATCC 8019) | MIC [4] | MIC [5] | MIC [6] | MIC [7] | MIC [8] | MIC [9] | MIC [10] | MIC (Ps. aeruginosa ATCC 9721) | MIC [11] | MIC (Sal. typhi ATCC 6539) | MIC [12] | MIC [13] | MIC (Ent. cloacae ATCC 23355) | MIC (Staph. aureus ATCC 25178) | MIC [14] | further results |
| --- | --- | --- | --- | --- | --- | --- | --- | --- | --- | --- | --- | --- | --- | --- | --- | --- | --- | --- | --- | --- | --- |
| C[C@H](N)C(=O)N[C@@H](C)C(=O)N[C@@H]1CN(c2nc3c(cc2F)c(=O)c(C(=O)O)cn3C2CC2)[C@H]1C [Exemple 4aAA] | 8 µg/mL (≈ 16.9 µM) | > 500 µg/mL | > 500 µg/mL | > 16 µg/mL | 4 µg/mL (≈ 8.43 µM) | 1 µg/mL (≈ 2.11 µM) | 2 µg/mL (≈ 4.22 µM) | 8 µg/mL (≈ 16.9 µM) | > 16 µg/mL | 8 µg/mL (≈ 16.9 µM) | 2 µg/mL (≈ 4.22 µM) | 2 µg/mL (≈ 4.22 µM) | > 16 µg/mL | 16 µg/mL (≈ 33.7 µM) | 2 µg/mL (≈ 4.22 µM) | 2 µg/mL (≈ 4.22 µM) | 8 µg/mL (≈ 16.9 µM) | 2 µg/mL (≈ 4.22 µM) | 4 µg/mL (≈ 8.43 µM) | 2 µg/mL (≈ 4.22 µM) | MIC [15]: 2 µg/mL (≈ 4.22 µM) |
| NCC(=O)NC1CN(c2nc3c(cc2F)c(=O)c(C(=O)O)cn3-c2ccc(F)cc2F)C1 [Exemple 4bG] | 1 µg/mL (≈ 2.24 µM) | 7.6 µg/mL (≈ 17 µM) | > 500 µg/mL | 16 µg/mL (≈ 35.8 µM) | 4 µg/mL (≈ 8.94 µM) | 1 µg/mL (≈ 2.24 µM) | 2 µg/mL (≈ 4.47 µM) | 2 µg/mL (≈ 4.47 µM) | > 32 µg/mL | 8 µg/mL (≈ 17.9 µM) | 0.5 µg/mL (≈ 1.12 µM) | 0.5 µg/mL (≈ 1.12 µM) | 16 µg/mL (≈ 35.8 µM) | 1 µg/mL (≈ 2.24 µM) | 1 µg/mL (≈ 2.24 µM) | 1 µg/mL (≈ 2.24 µM) | 16 µg/mL (≈ 35.8 µM) | 1 µg/mL (≈ 2.24 µM) | 1 µg/mL (≈ 2.24 µM) | 1 µg/mL (≈ 2.24 µM) | MIC [15]: 4 µg/mL (≈ 8.94 µM) |
| CC(C)C[C@H](N)C(=O)NC1CN(c2nc3c(cc2F)c(=O)c(C(=O)O)cn3-c2ccc(F)cc2F)C1 [Exemple 4bL, chlorhydratede l'acide 7-(3-Leu-amino-1-azétidinyl)-1-(2,4-difluorophényl)-6-fluoro-1,4-dihydro-4-oxo-1,8-naphtyridine-3-carboxylique] | 0.12 µg/mL | 23.1 µg/mL | > 500 µg/mL | 1 µg/mL | 2 µg/mL | 0.25 µg/mL | 1 µg/mL | 1 µg/mL | 8 µg/mL | 2 µg/mL | 0.25 µg/mL | 0.25 µg/mL | 4 µg/mL | 0.5 µg/mL | 1 µg/mL | 1 µg/mL | 2 µg/mL | 0.5 µg/mL | 4 µg/mL | 0.5 µg/mL | MIC [15]: 1 µg/mL |
